Values joined by “and” are separate entries in the source; they are usually repeats but may differ in a detail not shown here. Equal entries are not always repeated.
Tests used:
PD patients [1] = details: published observation in PD patients; cited from earlier work
MPTP monkey [2] = test: Induction of L-Dopa-induced dyskinesias in de novo MPTP parkinsonian monkeys (dyskinetic score); type: in vivo, cynomolgus (Macaca fascicularis) monkeys; details: for Dyskinesia induction (in words): 4 weeks treatment, L-Dopa/benserazide 100/25 mg alone or plus CI-1041 10 mg/kg per os, FIG. 1
MPTP monkey [3] = test: Delay and duration of L-Dopa response; type: in vivo, cynomolgus (Macaca fascicularis) monkeys; parameters: Delay of L-Dopa response / Duration of L-Dopa response: unit not given here; details: for Delay of L-Dopa response / Duration of L-Dopa response: mean ± SEM
MPTP monkey [4] = test: Side effects and stereotypies observed during 1-month treatment; details: CI-1041 10 mg/kg per os with L-Dopa
Experimental: The experiments were performed in accordance with the standards of the Canadian Council on Animal care using eight female cynomolgus (Macaca fascicularis) monkeys weighing 3.0 to 3.5 kg. They were housed separately in individual observation cages equipped with an electronic motility monitoring system (Datascience, St. Paul, Minnesota) in a temperature-controlled room and exposed to a 12-hour light/dark cycle (lights on 6 AM-6 PM). They were fed once daily in the afternoon (certified primate chow and fruits), and water was provided ad libitum. […] The animals were scored several times a week using a disability scale described below, where the normal state extends from 0 to 2, and maximal disability is 16 points. […]
The severity of dyskinesias was also rated every 30 minutes for each body segment: the face, neck, trunk, arms, and legs in the following way: None=0; Mild=1; Moderate=2; Severe=3. The difference between mild, moderate, and severe dyskinesias for a given body segment is based on the assessment of the amplitude of the abnormal movements and the frequency (whether they are occasional, intermittent, or constant); each body segment being scored separately based on assessment of observation in the preceding half hour. […]

[5] = molecular target: NR1A/2B cloned NMDA receptors (Homo sapiens, UniProt Q05586+Q13224); details: cited from earlier work
Chain of NR1A/2B cloned NMDA receptors (Q13224 27-1484, other chains not shown): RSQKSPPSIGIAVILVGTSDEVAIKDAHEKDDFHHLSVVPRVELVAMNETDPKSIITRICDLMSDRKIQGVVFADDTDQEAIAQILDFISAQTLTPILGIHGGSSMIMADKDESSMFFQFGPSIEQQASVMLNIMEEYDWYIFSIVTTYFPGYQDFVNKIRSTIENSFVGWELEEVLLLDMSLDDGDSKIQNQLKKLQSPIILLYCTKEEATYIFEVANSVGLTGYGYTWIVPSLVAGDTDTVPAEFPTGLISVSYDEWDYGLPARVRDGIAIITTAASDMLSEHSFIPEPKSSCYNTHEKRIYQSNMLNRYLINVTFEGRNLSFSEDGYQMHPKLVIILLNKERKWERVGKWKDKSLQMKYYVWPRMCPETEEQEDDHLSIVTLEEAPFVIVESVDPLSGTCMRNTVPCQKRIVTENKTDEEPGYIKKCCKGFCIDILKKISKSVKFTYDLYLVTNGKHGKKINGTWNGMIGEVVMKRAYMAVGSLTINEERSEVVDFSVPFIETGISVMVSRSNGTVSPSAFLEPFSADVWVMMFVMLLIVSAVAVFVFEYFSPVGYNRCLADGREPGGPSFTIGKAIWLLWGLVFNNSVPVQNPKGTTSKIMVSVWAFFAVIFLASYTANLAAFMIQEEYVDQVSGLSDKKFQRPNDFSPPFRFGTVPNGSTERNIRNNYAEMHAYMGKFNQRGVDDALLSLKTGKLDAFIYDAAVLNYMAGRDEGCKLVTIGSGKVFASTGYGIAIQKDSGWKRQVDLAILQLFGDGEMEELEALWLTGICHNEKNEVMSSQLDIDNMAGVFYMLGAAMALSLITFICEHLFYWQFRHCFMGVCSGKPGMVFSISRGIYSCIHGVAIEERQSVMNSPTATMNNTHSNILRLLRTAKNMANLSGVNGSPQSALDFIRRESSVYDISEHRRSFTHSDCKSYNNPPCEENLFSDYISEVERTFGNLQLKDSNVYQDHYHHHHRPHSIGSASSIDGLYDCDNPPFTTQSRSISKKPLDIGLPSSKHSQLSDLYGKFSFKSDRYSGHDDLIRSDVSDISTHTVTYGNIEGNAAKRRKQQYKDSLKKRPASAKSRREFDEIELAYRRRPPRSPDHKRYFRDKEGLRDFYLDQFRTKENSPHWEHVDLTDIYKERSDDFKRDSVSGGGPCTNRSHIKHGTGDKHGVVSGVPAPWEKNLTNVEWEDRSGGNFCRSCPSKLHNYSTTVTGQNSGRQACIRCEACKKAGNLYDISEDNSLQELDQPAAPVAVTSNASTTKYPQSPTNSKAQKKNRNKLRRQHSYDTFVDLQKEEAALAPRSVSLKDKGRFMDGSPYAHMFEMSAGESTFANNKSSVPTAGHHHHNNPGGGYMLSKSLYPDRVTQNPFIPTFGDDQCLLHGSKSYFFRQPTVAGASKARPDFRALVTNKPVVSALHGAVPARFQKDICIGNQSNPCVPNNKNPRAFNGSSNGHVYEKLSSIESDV

MPTP-treated monkeys = details: 3 to 30 mg/kg, cited from earlier work
[6] = test system: 6-OHDA-lesioned hemiparkinsonian rat model; details: cited from earlier work
PD patients [7] = details: cited from earlier work
MPTP monkey [8] = test: Antiparkinsonian response, disability scale for MPTP monkey (parkinsonian score); type: in vivo, cynomolgus (Macaca fascicularis) monkeys
MPTP monkey [9] = test: Locomotor activity by electronic motility monitoring system; type: in vivo, cynomolgus (Macaca fascicularis) monkeys; details: FIG. 2B; maintained during the 4 weeks
6-OHDA-lesioned rats = details: systemic administration; cited from earlier work

CCCN(CCC)CCc1cccc2c1CC(=O)N2 [ropinirole]
Sleep attacks (PD patients [1]): episodes of sudden onset of sleep

O=c1[nH]c2ccc([S+]([O-])CCN3CCC(Cc4ccc(F)cc4)CC3)cc2o1 (centres unmarked) [CI-1041, 6-{2-[4-(4-fluoro-benzyl)-piperidin-1-yl]-ethanesulfinyl}-3H-benzooxazol-2-one]
Dyskinesia induction (in words) (MPTP monkey [2]; 10 mg/kg): prevented dyskinesias | Dyskinesia induction (in words) (MPTP monkey [2]; listed as C-1041): completely prevented the induction of dyskinesias in three animals | Effect of CI-1041 co-administration on delay and duration of the L-Dopa response (in words) (MPTP monkey [3]; trend for delayed response in first 2 weeks): not significantly affected | Side effects / tolerability (MPTP monkey [4]): well-tolerated and no emesis, ataxia, or hallucinations were observed | Affinity, block of NR2B-containing NMDA receptors ([5]; allosteric modulation site): 24 nM | Selectivity for NR1A/2B cloned NMDA receptors [5]: > 1000 fold | Alteration in the antiparkinsonian effects of L-Dopa (MPTP-treated monkeys; in combination with L-Dopa): did not produce a consistent alteration | Antiparkinsonian activity when administered alone (MPTP-treated monkeys): did not exhibit any antiparkinsonian activity | Contraversive rotation induced by L-Dopa ([6]; peak rate and duration increased, maintained following 9 days of repeated co-administration): potentiated the contraversive rotation | Rotation induced by direct acting dopamine agonists SKF 38393 and quinpirole ([6]; rat, in vivo): potentiated rotation | Rotation when given alone ([6]; rat, in vivo): increased both contraversive and ipsiversive rotations

NC12CC3CC(CC(C3)C1)C2 [amantadine]
L-Dopa-induced dyskinesias in PD patients (PD patients [7]; human, in vivo): reduced L-Dopa-induced dyskinesias | Maintenance of beneficial effects on motor response complications after treatment initiation (PD patients [7]; one study): at least 1 year

CCCN[C@H]1CCc2nc(N)sc2C1 [pramipexole]
Sleep attacks (PD patients [1]): episodes of sudden onset of sleep

N[C@@H](Cc1ccc(O)c(O)c1)C(=O)O [L-Dopa]
Dyskinesia induction (in words) (MPTP monkey [2]): moderate to severe | Persistent Dyskinesia (Max Score), Mean ± SEM (MPTP monkey [2]; group mean ± SEM, n=4): 7.1 ± 1.3 | Persistent Dyskinesia (MPTP monkey [2]; individual animal, Yes/None, 28 days treatment): Yes | Persistent Dyskinesia (Max Score) (MPTP monkey [2]; individual animal, maximum dyskinetic score, maximal score 21): 8.5 and 4 and 6 and 10 | Parkinsonian scores as compared to the control (in words) (MPTP monkey [8]; FIG. 2A): significantly (P<0.01) lowered | Antiparkinsonian Efficacy (Min. Score), Mean ± SEM (MPTP monkey [8]; group mean ± SEM, n=4, 28 days treatment): 3.3 ± 0.2 | Antiparkinsonian Efficacy (MPTP monkey [8]; individual animal, grade in words, 28 consecutive days of daily oral treatment): Good | Antiparkinsonian Efficacy (Min. Score) (MPTP monkey [8]; individual animal, minimum parkinsonian score, maximal disability 16, 28 days treatment): 2.8 and 3.7 and 3.4 (2×) | Locomotion as compared to control (in words) (MPTP monkey [9]): significant (P<0.01) increase in locomotion | Delay of L-Dopa response (MPTP monkey [3]; Day 7): 47.3 ± 4.4^ | Duration of L-Dopa response (MPTP monkey [3]; Day 7): 221.3 ± 46.0^ | Delay of L-Dopa response (MPTP monkey [3]; Day 14): 59.5 ± 17.2 | Duration of L-Dopa response (MPTP monkey [3]; Day 14): 189.3 ± 29.5^ | Delay of L-Dopa response (MPTP monkey [3]; Day 21): 52.5 ± 10.3^ | Duration of L-Dopa response (MPTP monkey [3]; Day 21): 222.5 ± 24.6^ | Delay of L-Dopa response (MPTP monkey [3]; Day 28): 50 ± 5.8 | Duration of L-Dopa response (MPTP monkey [3]; Day 28): 198.75 ± 25.5 | Prevalence of dyskinesias (PD patients [7]; human, in vivo): 30-80%

C[C@]12N[C@H](Cc3ccccc31)c1ccccc12 [MK-801]
L-Dopa-induced motor fluctuations (6-OHDA-lesioned rats): completely reversed and more interestingly prevented

COc1ccc2c(c1)[C@]13CCCC[C@@H]1[C@H](C2)N(C)CC3 [dextromethorphan]
L-Dopa-induced dyskinesias in PD patients (PD patients [7]; human, in vivo): reduced L-Dopa-induced dyskinesias

Reference: patent publication US20030004187A1, “Method for preventing dyskinesias” (priority 2001, published 2003)
